Patent EP0500785B1, “A HUMAN T CELL REACTIVE FELINE PROTEIN (TRFP) ISOLATED FROM HOUSE DUST AND USES THEREFOR” (IMMULOGIC PHARMACEUTICAL CORPORATION, priority 1989, dated 2002)

How the values were obtained:
Assay type in all cases: cell-based, human
[1] = system: TRFP primed T cell cultures; assay: T cell proliferation assay (tritiated thymidine incorporation) of TRFP-primed T cells restimulated with allergens or peptides; conditions: for T cell stimulatory activity: summarising Tables 2 and 3
Experimental: Peripheral blood mononuclear cells (PBMC) were purified from 60 ml of heparinized blood from cat allergic patients. PBMC were subsequently treated as described below, although in individual cases, the length of time of cultivation with IL-2 and/or IL-4 and the specific peptides used for stimulation varied.
10 ml of PBMC from patient 131 at 10^6/ml were cultured at 37°C for 7 days in the presence of 5 micrograms purified TRFP/ml RPMI-1640 supplemented with 5% pooled human AB serum. Viable cells were purified by Ficoll-Hypaque centrifugation and cultured for three weeks at 5 units recombinant human IL-2/ml and 5 units recombinant human IL-4/ml. The resting T cells were then restimulated (secondary) with 5 micrograms TRFP at 2 x 10^5/ml in the presence of irradiated (3500 Rads) autologous PBMC at a concentration of 5 x 10^5/ml for three days, purified by Ficoll-Hypaque centrifugation and grown in 5 units IL-2 and 5 units IL-4/ml for two weeks. For assay, 2 x 10^4 resting secondary T cells were restimulated (tertiary) in the presence of 5 x 10^4 irradiated (3500 Rads) autologous PBMC or 2 x 10^4 transformed B cells (20,000 Rads) with various concentrations of allergens or their fragments in a volume of 200 microliters in a 96-well round bottom assay plates for 3 days. Each well then received 1 microCurie tritiated (methyl) thymidine for 16 hours. The counts incorporated were collected onto glass fiber filters and processed for liquid scintillation counting.
Antigens used: T cell reactive feline protein (TRFP), Hollister-Stier cat epithelium skin test reagent (CST), IPC ragweed pollen extract (pollen), and synthetic peptides derived from the TRFP protein sequence (See Figures 6 and 7). Significant T cell proliferation is generally regarded as greater than 2.5 times the media control (T cells and antigen presenting cells alone).
Alternatively, PBMC were treated as follows: the primary stimulated cells were cultured in IL-2/IL-4 for two weeks. The resting T cells derived from this culture were tested in a secondary assay with some, but not all, of the above allergens. […] This type of epitope analysis has allowed the definition of T cell epitopes present in TRFP.

[2] = system: Patient 155 TRFP secondary primed T cells; assay: Induction of T cell anergy/tolerance in vitro, followed by proliferation assay on antigenic challenge
Experimental: The T cell cultures were exposed to 5µg/ml TRFP on day 0 and 5µg/ml, 10µg/ml, 10µg/ml and 20µg/ml thereafter. The peptide treated cultures were exposed to 1µg/ml peptide on day 0 and 1µg/ml, 1µg/ml, 2µg/ml and 5µg/ml thereafter. In addition, 0.5ml of fresh media was replaced on day 2. The cells were then washed and set up for a proliferation assay with 2x10^4 T cells and 2x10^4 irradiated (2500 Rad) autologous EBV and various doses of antigen. T cell proliferation was measured as incorporation of tritiated thymidine at day 9. […]

[3] = system: Peripheral blood mononuclear cells (PBMC); assay: Cytokine profiles (IL-2, IFN-γ, IL-4 cDNA) by PCR in a primary 36 hour PBMC culture; design: key to STIMULATION INDEX IL-2 / STIMULATION INDEX IFN-γ / STIMULATION INDEX IL-4: fold over medium control; undetectable control set to 1.00; conditions: Patient 409 primary 36 hour culture; for STIMULATION INDEX IL-2 / STIMULATION INDEX IFN-γ / STIMULATION INDEX IL-4: 20 micrograms TRFP/ml or 50 micrograms peptide/ml; for STIMULATION INDEX IL-2: medium not detectable, lowest measurable response set at 1.00; for STIMULATION INDEX IFN-γ / STIMULATION INDEX IL-4: relative to medium control; for RATIO IFN/IL-4 / RATIO IL-2/IL-4: ratio of stimulation indices
Experimental: Peripheral blood mononuclear cells (PBMC) were purified from cat-allergic patients as described in Example 5. Five x 10^6 PBMC were cultured at 2 x 10^6/ml for 36 hours in the presence of medium only, 20 micrograms purified TRFP/ml or 50 micrograms peptide/ml. The cells were then washed two times with phosphate buffered saline (PBS, pH 7.2) and lysed with 2 ml […] guanidinium isothiocyanate, 0.5% Sarkosyl, 5 mM sodium citrate, 0.1 M 2-mercaptoethanol, pH 7.0. The lysate was then forced through a 26 gauge needle to shear genomic DNA, and was layered onto a 2 ml cushion of 5.7 M CsCl, 0.01 M EDTA, pH 7.5 in diethylpyrocarbonate (DEPC)-treated water. The lysate was centrifuged at 35,000 RPM in a Beckman SW41 rotor for 18 hours at 20°C. The RNA pellet was resuspended in 0.4 ml TE (10 mM Tris, 1 mM EDTA) pH 7.5, 0.1% SDS, and then extracted three times with 0.5 ml phenol/0.2 ml chloroform. The RNA was then precipitated on dry ice with 2.5 volumes ice-cold ethanol, 1/10 volume 3 M sodium acetate, pH 5.2 in DEPC-treated water, rinsed once with 70% ethanol in DEPC-treated water, and dried. The RNA pellet was resuspended in 2 microliters TE, pH 7.5 in DEPC-treated water.
Total cellular RNA was converted to cDNA using the Superscript kit (BRL, Bethesda, MD). Two microliters of RNA were added to one microliter oligo (dT)12-18 (500 micrograms/ml) and 9 microliters water. The sample was heated to 70°C for 10 minutes and ice quenched. Four microliters 5X buffer were added to the sample along with 2 microliters 0.1 M DTT and 1 microliter dNTP mix (10 mM each, dATP, dCTP, dGTP, dTTP). One microliter reverse transcriptase (200U) was added and the reaction was carried out for one hour at 42°C. The reaction was terminated by incubation of the sample at 90°C for five minutes and stored at -80°C.
Ten-fold serial dilutions of T cell cDNA in 10 mM TRIS, pH 7.5 were amplified using the standard kit and protocol recommended by Perkin Elmer-Cetus (Redwood City, CA). Each sample received 26.65 microliters water, 5 microliters 10X PCR buffer, 8 microliters of dNTP mix (1.25 mM each of dATP, dCTP, dGTP and dTTP), 0.1 microliter alpha ^32P-dCTP (3000 Ci/mmol), 0.25 microliter AmpliTaq, 5 microliters cDNA and 5 microliters cytokine-specific 5' and 3' primers (20 micromolar). The primers used for most cytokines and the beta-actin control were purchased from Clontech (Redwood City, CA). The human IL-4 primers were purchased from Research Genetics (Huntsville, AL) and had the following sequences: [formula]
The reactions were carried out after overlaying each sample with one drop of mineral oil, with the following program in a programmable thermal cycler (MJ Research, Cambridge, MA).
The PCR products were extracted once with 25 microliters chloroform and 25 microliters of each sample were then electrophoresed on an 8% polyacrylamide gel at 250 V. The gel was dried and exposed to pre-flashed x-ray film. Several exposures of each gel were then scanned using a Shimadzu flying spot laser densitometer. Values on the linear portion of the titrations were then compared to the medium control values to obtain a stimulation index for each sample. Primers for beta-actin were included as a control for general cDNA levels in each sample. Where the medium control values are not detectable, the lowest measurable response was set at 1.00. In other experiments, levels of cytokine cDNA can be compared directly with previously amplified cytokine-specific cDNAs as standards. Thus, absolute levels of particular cytokine cDNAs can be compared from one sample to another and from one experiment to another. In this experiment, IL-2, IL-4 and IFN-gamma levels were measured. […] This analysis will be expanded to studies of other cytokines involved in the generation of allergic responses, such as IL-5, IL-8, IL-9, TGF-beta. Samples of cDNA from each treatment can also be saved for later analysis once additional cytokines are identified and sequenced. […]

[4] = Chain #1 TRFP peptides, average cpm with antigen divided by cpm of T cells and antigen presenting cells alone, responding patients, SI ≥ 2.5 positive
[5] = Chain #1 TRFP peptides, cat allergic patients, average SI of all responding patients multiplied by percent of patients with a positive response
[6] = Chain #2 TRFP peptides, cat allergic patients, average SI of responding patients multiplied by percent positive
[7] = Chain #2 TRFP peptides, cat allergic patients, average of responding patients

Substance	SI [1, 4]	PI [1, 5]	T cell stimulatory activity ([1]; result in words)	T cell proliferation (cpm) following Antigenic challenge: Fel 8-3 ([2]; label = tolerance treatment over 5 days, challenge with Fel 8-3)	T cell proliferation (cpm) following Antigenic challenge: Ragweed Peptide ([2]; label = tolerance treatment over 5 days, challenge with Ragweed Peptide)	T cell proliferation (cpm) following Antigenic challenge: TRFP ([2]; label = tolerance treatment over 5 days, challenge with TRFP)	T cell proliferation (cpm) following Antigenic challenge: - ([2]; label = tolerance treatment over 5 days, no challenge antigen)	T cell proliferation (cpm) following Antigenic challenge ([2]; no tolerance treatment (-), label = challenge antigen)	secondary T cell response of peripheral blood lymphocytes ([1]; patient 131, Figure 9, result in words)	STIMULATION INDEX IL-2 [3]	STIMULATION INDEX IFN-γ [3]	STIMULATION INDEX IL-4 [3]	RATIO IFN/IL-4 [3]	RATIO IL-2/IL-4 [3]	PI [1, 6]	SI [1, 7]
Fel 8-3: TRFP chain 1 peptide, amino acids 7 - 33 (KRDVDLFLTGTPDEYVEQVAQYKALPV; UniProt P30438 29-55, looked up, fragment)	16.9	1437	powerful activity	3,850 cpm	5,130 cpm	12,320 cpm	1,270 cpm	58,150 cpm	–	–	–	–	–	–	–	–
Fel 8: TRFP chain 1 peptide, amino acids 1 - 30 (EICPAVKRDVDLFLTGTPDEYVEQVAQYKA; UniProt P30438 23-52, looked up, fragment)	18.1	1393	most dominant T-cell epitopes	–	–	–	–	–	respond	1.0	1.8	0.3	6.0	3.3	–	–
Fel 14: TRFP chain 1 peptide, amino acids 18 - 43 (PDEYVEQVAQYKALPVVLENARILKN; UniProt P30438 40-65, looked up, fragment)	13.7	1054	powerful activity	–	–	–	–	–	–	106.9	75.0	1.9	39.5	56.3	–	–
Fel 17: TRFP chain 2 peptide, amino acids 12 - 33 (DVFFAVANGNELLLDLSLTKVN; UniProt P30440 29-50, looked up, fragment)	–	–	–	–	–	–	–	–	–	315.1	82.4	7.5	11.0	42.0	421	6.1
Fel 20-1: TRFP chain 2 peptide, amino acids 34 - 59 (ATEPERTAMKKIQDCYVENGLISRVL; UniProt P30440 51-76, looked up, fragment)	–	–	–	–	–	–	–	–	–	–	12.0	4.6	2.6	–	395	5.9
Fel 25: TRFP chain 2 peptide, amino acids 49 - 68 (YVENGLISRVLDGLVMTTIS; UniProt P30440 66-85, looked up, fragment)	–	–	–	–	–	–	–	–	–	2.9	12.7	2.5	5.1	1.2	350	7.6
Fel 28: TRFP chain 2 peptide, amino acids 60 - 82 (DGLVMTTISSSKDCMGEAVQNTV; UniProt P30440 77-99, looked up, fragment)	–	–	weakest T cell epitope containing region of TRFP	–	–	–	–	–	–	–	3.8	0.5	7.6	–	94	3.6
Fel 29: TRFP chain 2 peptide, amino acids 74 - 92 (MGEAVQNTVEDLKLNTLGR; UniProt P30440 91-109, looked up, fragment)	–	–	–	–	–	–	–	–	–	1.2	3.0	1.1	2.7	1.1	259	5.5
